The text below walks through data of paper PMC7904827 (Scientific Reports, 2021).

Where a name gives a salt, the structure may show the parent alone.

The nature of series [1]: Process stability in untreated plasma. The following applies: within 10 min. In kind it is in vitro ADME, rabbit. As to the method:
Linearity was tested within the concentration range of 0.2 – 100 μM for all compounds in DMEM, the buffer and plasma and 10-100 pmol/106cells in NVCMs (method I). For method II, the concentration ranges 0.01-15 μM and 0.01-1 μM were used for determination of ICRF-193 and ICRF-193met in plasma, respectively. Unweighted and weighted (1/x and 1/x2) linear regression was applied to obtain the best fitting calibration model. […]
Stability of the analytes was examined at low and high concentrations. Process s tability (n=3) in plasma was tested for 20 min at either laboratory temperature (23 °C) or on ice (4 °C, only for GK-667). Post-preparation stability was examined for 8 to 10 h in an autosampler (8 °C, n=3) for all treated matrices. […]

Series [2] in a line: In vivo pharmacokinetic study of GK-667 in rabbits, noncompartmental analysis. Also noted: species or system rabbit. As to the method:
(§1) GK-667 was freshly dissolved in saline (5 mg/mL) before each administration. New Zealand White male rabbits (n = 6, ∼3.8 kg) received GK-667 (5 mg/kg) administered as a single slow (2 min) intravenous dose bolus to the ear marginal vein. Blood (∼1 mL) was sampled from veins on the contralateral ear at selected time points after drug administration (5 min to 9 h) into BD Vacutainers (BD Biosciences, Plymouth, UK) containing lithium heparin. Collected blood samples were immediately centrifuged (2 min, 3000 rpm, 4 °C), and plasma samples were harvested directly.
Plasma samples taken 0 to 20 min after GK-667 administration were immediately processed by the addition of formic acid and precipitation with ice-cold methanol. The supernatants were then analyzed for all analytes, including the intact prodrug. This was essential to ensure the appropriate determination of highly labile GK-667 at the first sampling intervals, and the whole procedure was validated for this purpose. […] Thus, all following plasma samples were immediately shock-frozen in liquid nitrogen and stored at -80 °C until analysis.
For drug administration and blood sampling, light anesthesia was induced in rabbits with a mixture of ketamine (25 mg/kg, i.m.) and midazolam (2.5 mg/kg, i.m.); sedation was then maintained with midazolam when needed. The blood withdrawn from the animals was compensated with an appropriate volume of sterile saline. All in vivo experiments and procedures were approved and supervised by the Animal Welfare Committee of the Faculty of Medicine in Hradec Kralove (Charles University), and the experiments were performed in compliance with the ARRIVE guidelines.
Standard noncompartmental analysis was performed using Kinetica software (version 4.0, Thermo Fisher Scientific Inc., USA). The population parameter estimation for nonlinear mixed effect models was conducted using Monolix version 2019R2 software (Antony, France: Lixoft SAS, 2019, http://lixoft.com/products/monolix/). The stochastic approximation expectation maximization (SAEM) algorithm coupled with Markov Chain Monte Carlo (MCMC) without the use of approximations (linearization) was used for the estimation of the likelihood. For evaluation of the goodness-of-fit, the following plots were assessed: observed versus individual predicted concentrations, weighted residuals versus time and weighted residuals versus predictions. Individual parameter values were obtained as empirical Bayes estimates. A visual predictive check with 1000 simulated data sets was performed.

Series [3] in a line: Incubation in DMEM in an incubator (5% CO2, 37 °C) without cells. In kind it is in vitro ADME. The following applies: 100 µM. As to the method: Herein, incubations were performed in DMEM (100 μM) in a CelCulture Incubator (5% CO2, 37 °C, ESCO, USA) to mimic the conditions of the in vitro cytoprotective assay, and the results were compared to those from the saline buffer (116 mM NaCl, 5.3 mM KCl, 1.2 mM MgSO4, 1 mM CaCl2, 1.13 mM NaH2PO4, 5 mM glucose, and 20 mM HEPES, pH = 7.4).
(§2) From all of the above described experiments, samples were taken at predefined intervals, treated and immediately analyzed. All experiments were performed in four replicates, and the results are expressed as the mean ± SD.

A short description of series [4]: ICRF-193 release from GK-667 in rabbit plasma in vitro. Format: in vitro ADME. The following applies: GK-667 10 and 100 µM, 37 °C. On the procedure:
as §2

A short description of series [5]: Solubility and stability of the GK-667 dosing solution in saline. In kind it is physicochemical. As to the method:
This dose of the prodrug was easily soluble in a commercially available saline solution (sodium chloride 0.9%, B-Braun, Germany) at a concentration of 5 mg/mL, which is convenient for administration to rabbits as an experimental animal model and could also be used for future pharmacodynamics experiments.
as §1

Series [6] concerns neonatal ventricular cardiomyocytes (NVCMs). The series can be described thus: Toxicity of the prodrugs alone in NVCMs (LDH release). In kind it is cell-based, rat. On the procedure: After 3 h, DAU solution (1.2 µM) was added to the media. After another 3 h, the medium was replaced with new (drug-free) exposure medium, and the cardiomyocytes were then kept until the end of the experiment. In addition to cytoprotective properties, the toxicity of the studied agent was also examined; this experiment was performed as described above with only the DAU addition step omitted.
Forty-five hours after the last medium exchange, a sample of medium was taken from each well to assess lactate dehydrogenase (LDH) activity[27]–[29]. For details, see the Supplementary material.
1.5 LDH activity evaluation
The control wells were treated with lysis buffer (0.1 M potassium phosphate, 1% Triton
X-100, 1 mM DTT, 2 mM EDTA; pH 7.8; 15 min; room temperature) to measure the total
cellular LDH level (sum of the activity in the control medium and the lysate). The activity of
LDH was assayed in Tris-HCl buffer (pH 8.9) containing 35 mM sodium lactate and 5 mM
NAD+. The rate of NAD+ reduction was monitored spectrophotometrically at 340 nm for 2 min.
The slope of the linear region and molar absorption coefficient e = 6.22*10 3 M/cm were used
to calculate the LDH activity, and the data were expressed as a percentage of total L DH activity. […]

Take `C[C@H]([C@H](C)N1CC(=O)N(COC(=O)CN)C(=O)C1)N1CC(=O)N(COC(=O)CN)C(=O)C1` [GK-667, meso-2,3-bis(4-(2-aminoacetoxymethyl)-3,5-dioxopiperazin-1-yl)butane tetrahydrochloride]: the GK-667 decomposed is on record as around 50% in series [1] (plasma samples at room temperature (23 °C)) and “less than 6%” in series [1] (plasma samples on ice). The peak level in series [2] (male, New Zealand White, rabbit, plasma, iv, 5 mg/kg, rabbits n = 6, GK-667 5 mg/kg i.v., NCA) (Cmax) was 2.7 µM. The time to peak (Tmax) in series [2] (male, New Zealand White, rabbit, plasma, iv, rabbits n = 6, GK-667 5 mg/kg i.v., NCA, read-out: Tmax (converted)) is 5 min. Further, the concentration at 5 min in series [2] (male, New Zealand White, rabbit, plasma, iv, rabbits, GK-667 5 mg/kg i.v., 5th min, read-out: mean plasma concentration of the prodrug) is 2.7 µM. Also, the concentration at 10 min in series [2] (male, New Zealand White, rabbit, plasma, iv, rabbits, GK-667 5 mg/kg i.v., 10th min, read-out: mean plasma concentration of the prodrug) amounted to 0.4 µM. Besides, in series [2] (male, New Zealand White, rabbit, plasma, iv, rabbits, GK-667 5 mg/kg i.v., 20 min, in all but one animal, read-out: plasma concentration of the prodrug (below LLOQ)), the concentration at 20 min is below 0.1 µM. In addition, the “time to essentially complete clearance of the parent compound from plasma” value in series [2] (rabbits, after injection of GK-667) was at most 10 min. The “degradation in DMEM without cells” value in series [3] is “rapidly degraded”. The “metabolism of the prodrug in plasma” value in series [4] is on record as “rapidly metabolized”. The “time the saline solution stays physically and chemically stable” value in series [5] (5 mg/mL in saline, 20 °C) is “at least 1 h”. Further, the “GK-667 concentration remaining in saline solution” value in series [5] (5 mg/mL in saline, 20 °C, 1 h) is reported as ≥ 95 % of the initial amount. In series [5] (saline (sodium chloride 0.9%)), this compound registered a solubility of at least 5 mg/mL. In addition, the “cytotoxicity of the prodrug alone towards NVCMs” value in series [6] (LDH release, without DAU) is recorded as “nontoxic on its own”. Moreover, the “LDH release, statistical significance compared to control” value in series [6] (prodrug alone 1–100 µM, NVCMs, n.s. or c in Fig. S2) is given as “n.s”.
